Experimental data taken from DBAASP.
In brackets after ≈: the same amount, converted by molar mass. Several values for one entry are separate records, joined by “and”; a condition that tells them apart may be missing. Identical values can stand only once. One block for each compound: values may come before it.

Tests used:
Experiment in all cases: ≥ marks a high value that may be exact or a test limit, other limits are often not marked, values filed in µg/mL are converted to µM
[1] = test system: Pseudomonas aeruginosa ATCC 27853
[2] = test system: Staphylococcus aureus ATCC 25923
[3] = test system: Pseudomonas aeruginosa PAO1
[4] = test system: Staphylococcus aureus ATCC 43300
[5] = test system: Staphylococcus aureus ATCC 6538
[6] = test system: Pseudomonas aeruginosa ATCC 9027
[7] = test system: Candida albicans ATCC 2002
[8] = test system: Bacillus subtilis
[9] = test system: Escherichia coli ATCC 25922
[10] = test system: Candida albicans ATCC 90028
[11] = test system: Staphylococcus aureus ATCC 29213
[12] = test system: Bacillus subtilis ATCC 6633

MIC [1]: 11.9 µM (≈ 25 µg/mL)
MIC [2]: 23.8 µM (≈ 50 µg/mL)
MIC [3]: 11.9 µM (≈ 25 µg/mL)
MIC [4]: 23.8 µM (≈ 50 µg/mL)
SMILES: CC[C@H](C)[C@H](NC(=O)[C@H](CCCCN)NC(=O)[C@H](Cc1cnc[nH]1)NC(=O)[C@H](CC(N)=O)NC(=O)[C@H](Cc1c[nH]c2ccccc12)NC(=O)CNC(=O)[C@H](C)NC(=O)[C@H](CO)NC(=O)[C@@H](NC(=O)[C@@H](NC(=O)[C@@H](N)CS)C(C)C)[C@@H](C)CC)C(=O)N[C@@H](CCCN=C(N)N)C(=O)N[C@H]1CSSC[C@@H](C(=O)O)NC(=O)[C@H](CC(N)=O)NC(=O)CNC(=O)[C@H]([C@@H](C)O)NC(=O)[C@H](CC(C)C)NC(=O)[C@H](CCCCN)NC1=O [CVISAGWNHKIRCKLTGNC]

MIC [2]: 0.459 µM (≈ 1.17 µg/mL)
MIC [7]: 0.919 µM (≈ 2.34 µg/mL)
MIC [4]: 3.68 µM (≈ 9.37 µg/mL)
MIC [8]: 0.919 µM (≈ 2.34 µg/mL)
SMILES: CC[C@H](C)[C@H](NC(=O)CNC(=O)[C@H](C)NC(=O)[C@H](C)NC(=O)[C@@H](NC(=O)[C@H](CCCCN)NC(=O)[C@H](CC(C)C)NC(=O)[C@@H](NC(=O)[C@@H]1CCCN1C(=O)CNC(=O)[C@@H](NC(=O)[C@@H](N)Cc1ccccc1)C(C)C)C(C)C)[C@@H](C)CC)C(=O)N[C@@H](CC(C)C)C(=O)N1CCC[C@H]1C(=O)N[C@H](C(=O)N[C@@H](C)C(=O)N[C@H](C(=O)N[C@H]1CSSC[C@@H](C(=O)O)NC(=O)[C@H](CCCCN)NC(=O)[C@H](CCCCN)NC(=O)[C@H](Cc2ccc(O)cc2)NC(=O)[C@H]([C@@H](C)CC)NC(=O)[C@H](CCCCN)NC1=O)[C@@H](C)CC)[C@@H](C)O [FVGPVLKIAAGILPTAICKIYKKC]

MIC [2]: 10 µM (≈ 14.4 µg/mL)
MIC [9]: 35 µM (≈ 50.3 µg/mL)
MIC [3]: 66 µM (≈ 94.9 µg/mL)
SMILES: CC(C)C[C@H](NC(=O)CN)C(=O)N[C@@H](CC(C)C)C(=O)N[C@@H](CC(=O)O)C(=O)N[C@@H](CC(C)C)C(=O)N[C@@H](CC(C)C)C(=O)N[C@@H](CCCCN)C(=O)N[C@@H](CC(C)C)C(=O)N[C@@H](CC(C)C)C(=O)N[C@@H](CC(C)C)C(=O)N[C@@H](CCCCN)C(=O)N[C@@H](C)C(=O)N[C@@H](C)C(=O)NCC(=O)O [GLLDLLKLLLKAAG]

MIC [1]: 10 µM (≈ 15.4 µg/mL)
MIC [9]: 3.24 µM (≈ 5 µg/mL)
MIC [10]: ≥ 40 µM
MIC [11]: 20 µM (≈ 30.9 µg/mL)
SMILES: CC[C@H](C)[C@H](NC(=O)[C@H](CCCN=C(N)N)NC(=O)[C@@H](N)CCCCN)C(=O)N[C@@H](C)C(=O)N[C@@H](CCC(N)=O)C(=O)N[C@@H](CCCN=C(N)N)C(=O)N[C@H](C(=O)N[C@@H](CCCCN)C(=O)N[C@@H](CC(=O)O)C(=O)N[C@@H](Cc1ccccc1)C(=O)N[C@@H](CC(C)C)C(=O)N[C@@H](CCCN=C(N)N)C(=O)O)[C@@H](C)CC [KRIAQRIKDFLR]

MIC [1]: 5 µM (≈ 8 µg/mL)
MIC [9]: 2.5 µM (≈ 4 µg/mL)
MIC [10]: 20 µM (≈ 32 µg/mL)
MIC [11]: 20 µM (≈ 32 µg/mL)
SMILES: CC[C@H](C)[C@H](NC(=O)[C@H](CCCN=C(N)N)NC(=O)[C@H](CCC(N)=O)NC(=O)[C@H](CCCCN)NC(=O)[C@@H](NC(=O)[C@H](CCCN=C(N)N)NC(=O)[C@@H](N)CCCCN)[C@@H](C)CC)C(=O)N[C@@H](CCCCN)C(=O)N[C@@H](CC(=O)O)C(=O)N[C@@H](Cc1ccccc1)C(=O)N[C@@H](CC(C)C)C(=O)N[C@@H](CCCN=C(N)N)C(=O)O [KRIKQRIKDFLR]

MIC [5]: 1.1 µM (≈ 3.02 µg/mL)
SMILES: CC(C)C[C@@H]1NC(=O)CNC(=O)[C@H]([C@@H](C)O)NC(=O)[C@@H]2CCCN2C(=O)[C@H](CC(C)C)NC(=O)CNC(=O)[C@H](CC(N)=O)NC(=O)[C@H](CC(N)=O)NC(=O)[C@H](Cc2ccc(O)cc2)NC(=O)[C@H](C(C)C)NC(=O)[C@H](CCCN=C(N)N)NC(=O)[C@@H](NC(=O)[C@H](CCCN=C(N)N)NC(=O)[C@H](Cc2cnc[nH]2)NC(=O)[C@H](CCCCN)NC(=O)[C@H](CCCCN)NC(=O)[C@H](CCCN=C(N)N)NC(=O)[C@@H](N)CCCCN)CSSC[C@@H](C(N)=O)NC(=O)[C@H](Cc2c[nH]c3ccccc23)NC(=O)[C@H](CCCN=C(N)N)NC(=O)[C@H](Cc2ccc(O)cc2)NC1=O [KRKKHRCRVYNNGLPTGLYRWC]

MIC [9]: 61.2 µM (≈ 150 µg/mL)
MIC [7]: ≥ 45.9 µM
SMILES: CC[C@H](C)[C@H](NC(=O)[C@@H](NC(=O)[C@@H](NC(=O)[C@@H]1CCCN1C(=O)[C@H](Cc1c[nH]c2ccccc12)NC(=O)[C@H](Cc1ccccc1)NC(=O)[C@H](CCCN=C(N)N)NC(=O)[C@H](CCCCN)NC(=O)[C@@H](NC(=O)[C@@H](N)CCCN=C(N)N)[C@@H](C)CC)C(C)C)C(C)C)C(=O)N[C@@H](CCCN=C(N)N)C(=O)N[C@H](C(=O)N[C@H](C(=O)N[C@H](C(=O)N[C@@H](C)C(=O)NCC(=O)N[C@@H](Cc1ccc(O)cc1)C(=O)N[C@@H](CC(N)=O)C(=O)N[C@@H](CC(C)C)C(=O)N[C@@H](Cc1ccc(O)cc1)C(=O)O)C(C)C)C(C)C)[C@@H](C)O [RIKRFWPVVIRTVVAGYNLY]

MIC [3]: 26 µM and 30 µM
SMILES: CC(C)C[C@H](NC(=O)[C@H](C)NC(=O)[C@H](Cc1c[nH]c2ccccc12)NC(=O)CNC(=O)[C@H](CCCN=C(N)N)NC(=O)[C@@H](N)CCCN=C(N)N)C(=O)N[C@@H](CCCN=C(N)N)C(=O)N[C@@H](CC(C)C)C(=O)N[C@H](C(=O)N[C@@H](CC(C)C)C(=O)N[C@@H](C)C(=O)N[C@@H](Cc1ccc(O)cc1)C(N)=O)C(C)C [RRGWALRLVLAY]

Second part, the compound before the results:

SMILES: CC(C)C[C@H](NC(=O)[C@H](C)NC(=O)[C@H](CCCCN)NC(=O)[C@H](CCCCN)NC(=O)[C@H](CC(C)C)NC(=O)[C@H](Cc1ccccc1)NC(=O)[C@H](CCCCN)NC(=O)[C@H](C)NC(=O)[C@H](CC(C)C)NC(=O)[C@H](Cc1ccccc1)NC(=O)[C@H](CCCCN)NC(=O)[C@H](C)NC(=O)[C@@H](N)Cc1ccccc1)C(N)=O [FAKFLAKFLKKAL]
MIC [5]: 3.28 µM (≈ 5 µg/mL)
MIC [6]: 65.6 µM (≈ 99.9 µg/mL)

SMILES: CC[C@H](C)[C@H](NC(=O)[C@H](CC(C)C)NC(=O)[C@H](CCCCN)NC(=O)[C@H](CCCCN)NC(=O)[C@H](C)NC(=O)[C@H](CC(C)C)NC(=O)[C@H](CCCCN)NC(=O)[C@H](CCCCN)NC(=O)[C@H](CC(C)C)NC(=O)[C@H](CCCCN)NC(=O)[C@H](CCCCN)NC(=O)[C@H](C)NC(=O)[C@H](CC(C)C)NC(=O)[C@H](CCCCN)NC(=O)[C@H](CCCCN)NC(=O)[C@H](C)NC(=O)[C@@H](N)Cc1ccccc1)C(=O)NCC(=O)N[C@@H](C)C(=O)N[C@H](C(=O)N[C@@H](CC(C)C)C(=O)N[C@@H](CCCCN)C(=O)N[C@H](C(=O)O)C(C)C)C(C)C [FAKKLAKKLKKLAKKLIGAVLKV]
MIC [5]: 39.4 µM (≈ 100 µg/mL)
MIC [6]: > 78.8 µM

SMILES: CC(C)C[C@H](NC(=O)[C@H](C)NC(=O)[C@H](CCCCN)NC(=O)[C@H](CCCCN)NC(=O)[C@H](CC(C)C)NC(=O)[C@H](C)NC(=O)[C@H](CCCCN)NC(=O)[C@H](C)NC(=O)[C@H](CC(C)C)NC(=O)[C@H](CC(C)C)NC(=O)[C@H](CCCCN)NC(=O)[C@H](C)NC(=O)[C@@H](N)Cc1ccccc1)C(N)=O [FAKLLAKALKKAL]
MIC [5]: 3.53 µM (≈ 5 µg/mL)
MIC [6]: 7.07 µM (≈ 9.99 µg/mL)

SMILES: CC(C)C[C@H](NC(=O)[C@H](CCCCN)NC(=O)[C@H](CCCCN)NC(=O)[C@H](C)NC(=O)[C@H](CC(C)C)NC(=O)[C@H](CCCCN)NC(=O)[C@H](C)NC(=O)[C@H](Cc1c[nH]c2ccccc12)NC(=O)[C@H](CC(C)C)NC(=O)[C@H](CCCCN)NC(=O)[C@H](C)NC(=O)[C@@H](N)Cc1ccccc1)C(N)=O [FAKLWAKLAKKL]
MIC [5]: 70.6 µM (≈ 99.9 µg/mL)
MIC [6]: 35.3 µM (≈ 50 µg/mL)

SMILES: CC(C)C[C@H](NC(=O)CNC(=O)[C@H](C)NC(=O)[C@@H](NC(=O)[C@H](CC(N)=O)NC(=O)[C@H](CO)NC(=O)[C@H](CC(C)C)NC(=O)[C@@H](N)CC(C)C)C(C)C)C(=O)N[C@@H](CC(C)C)C(=O)N[C@@H](CCCCN)C(=O)N[C@@H](CCC(N)=O)C(=O)N[C@@H](Cc1ccccc1)C(=O)N[C@@H](C)C(=O)N[C@@H](CCCCN)C(=O)O [LLSNVAGLLKQFAK]
MIC [1]: 42.6 µM (≈ 64 µg/mL)
MIC [2]: 85.2 µM (≈ 128 µg/mL)
MIC [9]: 5.33 µM (≈ 8 µg/mL)
MIC [12]: ≥ 85.2 µM

SMILES: CC[C@H](C)[C@H](NC(=O)[C@H](C)NC(=O)[C@H](CCCN=C(N)N)NC(=O)[C@H](Cc1ccc(O)cc1)NC(=O)[C@H](CC(C)C)NC(=O)[C@H](CC(N)=O)NC(=O)[C@H](Cc1ccc(O)cc1)NC(=O)CNC(=O)[C@H](C)NC(=O)[C@@H](NC(=O)[C@@H](NC(=O)[C@@H](NC(=O)[C@H](CCCN=C(N)N)NC(=O)[C@@H](NC(=O)[C@@H](NC(=O)[C@@H](NC(=O)[C@@H]1CCCN1C(=O)[C@H](Cc1c[nH]c2ccccc12)NC(=O)[C@H](Cc1ccccc1)NC(=O)[C@H](CCCN=C(N)N)NC(=O)[C@H](CCCCN)NC(=O)[C@@H](NC(=O)[C@@H](N)CCCN=C(N)N)[C@@H](C)CC)C(C)C)C(C)C)[C@@H](C)CC)[C@@H](C)O)C(C)C)C(C)C)C(=O)N[C@@H](CCCCN)C(=O)N[C@@H](CCCCN)C(=O)O [RIKRFWPVVIRTVVAGYNLYRAIKK]
MIC [2]: 3.08 µM (≈ 9.38 µg/mL)
MIC [9]: 1.15 µM (≈ 3.52 µg/mL)
MIC [7]: 0.769 µM (≈ 2.34 µg/mL)
MIC [8]: 1.54 µM (≈ 4.69 µg/mL)
